The nature of data set [1]: MTT assay (cytotoxicity), LNCaP cells. To be noted: human, LNCaP cells. The format is cell-based. In a few lines: (§1)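 Seed 6-7×10^3 cells/well; incubate overnight; replace with fresh RPMI 1640 + 10% FBS containing compound or DMSO; incubate 72 h; measure viable cells by MTT.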
Data set [2] deals with T1, glucocorticoid receptor (GR) (Homo sapiens, UniProt P04150).
T1 construct: PC3 cells express endogenous GR; endogenous in cells; host or cells: PC3
T1 sequence (P04150 1-777): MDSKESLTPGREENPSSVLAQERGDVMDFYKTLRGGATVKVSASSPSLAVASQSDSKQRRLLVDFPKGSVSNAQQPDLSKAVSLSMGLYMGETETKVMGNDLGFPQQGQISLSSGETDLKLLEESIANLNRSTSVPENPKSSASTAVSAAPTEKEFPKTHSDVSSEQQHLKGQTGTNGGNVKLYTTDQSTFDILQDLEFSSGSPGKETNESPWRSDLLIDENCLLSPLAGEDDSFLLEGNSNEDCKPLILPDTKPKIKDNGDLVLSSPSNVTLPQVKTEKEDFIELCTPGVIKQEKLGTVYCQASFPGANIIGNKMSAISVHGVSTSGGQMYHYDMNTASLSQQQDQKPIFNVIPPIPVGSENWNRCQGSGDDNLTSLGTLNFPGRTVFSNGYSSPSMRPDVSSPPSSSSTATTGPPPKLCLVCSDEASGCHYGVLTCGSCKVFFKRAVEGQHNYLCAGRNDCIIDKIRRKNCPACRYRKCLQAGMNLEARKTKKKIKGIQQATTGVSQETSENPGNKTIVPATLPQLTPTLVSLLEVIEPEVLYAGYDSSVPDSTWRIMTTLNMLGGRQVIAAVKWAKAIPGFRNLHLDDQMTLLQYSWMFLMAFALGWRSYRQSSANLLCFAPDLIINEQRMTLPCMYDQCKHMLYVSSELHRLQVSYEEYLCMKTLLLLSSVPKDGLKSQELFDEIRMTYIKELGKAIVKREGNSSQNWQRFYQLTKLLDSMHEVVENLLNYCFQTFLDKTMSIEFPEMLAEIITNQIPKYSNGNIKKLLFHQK
The experiment in a line: GR MMTV-luc reporter assay in PC3 cells. The class given is cell-based. The arrangement: interference with transcriptional activity of GR: dose or concentration left out as unconfirmed. Particulars: for effect on GR transcriptional activation induced by DEX (MMTV-luc): 10 nM DEX, 24 h; for agonism of GR (MMTV-luc): absence of DEX. The source says: A) PC3 cells express endogenous GR. MMTV-Luc and pRL-TK were transiently co-transfected into PC3 cells.
AR and GR are close homology proteins and both of them belong to steroid receptor family. […] MMTV-luc reporter and pRL-TK plasmids were transiently co-transfected into PC3 cells, which endogenously express GR. […] DEX is an agonist of the GR.
A general note: In a reporter assay the amount or activity of a reporter protein is the signal.

For the next data set, the target named is T2, AR-v7 (Homo sapiens, UniProt P10275).
T2 sequence (P10275 1-644 isoform P10275-3): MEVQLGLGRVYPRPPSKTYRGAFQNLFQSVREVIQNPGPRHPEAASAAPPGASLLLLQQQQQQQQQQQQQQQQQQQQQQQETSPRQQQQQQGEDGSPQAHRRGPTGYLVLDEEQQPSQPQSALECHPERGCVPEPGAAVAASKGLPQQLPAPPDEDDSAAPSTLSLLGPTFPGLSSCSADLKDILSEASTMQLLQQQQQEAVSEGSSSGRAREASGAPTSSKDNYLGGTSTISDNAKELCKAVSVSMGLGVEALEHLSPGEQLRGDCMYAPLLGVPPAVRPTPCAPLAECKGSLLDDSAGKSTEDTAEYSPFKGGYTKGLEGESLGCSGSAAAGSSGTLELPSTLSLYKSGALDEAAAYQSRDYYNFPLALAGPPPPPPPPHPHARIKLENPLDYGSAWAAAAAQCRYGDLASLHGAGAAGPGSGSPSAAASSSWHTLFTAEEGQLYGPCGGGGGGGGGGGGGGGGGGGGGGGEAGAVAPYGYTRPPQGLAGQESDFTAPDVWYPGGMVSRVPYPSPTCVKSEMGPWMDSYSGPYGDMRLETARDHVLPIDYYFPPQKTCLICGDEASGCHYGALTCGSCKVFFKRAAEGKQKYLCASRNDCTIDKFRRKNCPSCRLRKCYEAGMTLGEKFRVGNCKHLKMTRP
The experiment in a line: AR-v7-dependent PSA-luc reporter assay in HEK293 cells. To be noted: for potency relative to EPI-001 at 25 μM in suppressing constitutive activation of wild-type AR-v7: compounds at 2.5 μM.

The test system of a further data set is LNCaP cells. As to the kind of experiment: MTT assay (cytotoxicity), LNCaP cells. The class given is cell-based. To be noted: LNCaP cells, 72 h, Table 4.2. In a few lines: as §1
The test system of the next data set is DU145 cells. As to the kind of experiment: MTT assay (cytotoxicity), DU145 cells. The class given is cell-based. Particulars: DU145 cells, 72 h, Table 4.2. The essentials:
as §1

Entries after “also recorded” stand apart in the source; their conditions may differ.

Description for AR-v7: Cells were exposed to vehicle control or compounds at designated concentrations (μM) for 48 h.

As a reminder, the IC50 is the concentration at which inhibition is half-maximal. In data set [1] (72 h treatment, Table 6.1), `O=C(Nc1cccc(C(F)(F)F)c1)Nc1ccc(NC(=O)c2ccccc2F)c(C(F)(F)F)c1` [Compound 746] came in with an IC50 at 72 h of 1 µM. Besides, in data set [2], the “interference with transcriptional activity of GR” value (shortened to “interference”) is recorded as “do not interfere”. For the same compound, in data set [2] (PC3 cells), the “effect on GR transcriptional activation induced by DEX (MMTV-luc)” value (from here on “effect”) is recorded as “do not interfere; also recorded: selective towards the AR”. For the same compound, the “inhibition of constitutive activation of AR-v7 (PSA-luc)” value (“inhibition” for short) is on record as “inhibit” against AR-v7 (2.5 μM) and “dose-dependently inhibit” on AR-v7 (24 h).
Turning to `N#Cc1ccc(NC(=O)Nc2cccc(C(F)(F)F)c2)cc1Cl` [Compound 492], the results for the concentration for half-maximal inhibition (IC50) in the data set with LNCaP cells and with DU145 cells were 0.8 µM and 5.1 µM, respectively. Moreover, in data set [2] (PC3 cells), the “effect” value was “inactive”. The “suppression of GR transactivation induced by 10 nM DEX” value (from here on “suppression”) in data set [2] (5 μM, PC3 cells) is “inactive”. Moreover, in data set [2] (5 μM), the “agonism of GR (MMTV-luc)” value is listed as “non-agonist”. Also, the “inhibition” value on AR-v7 (24 h) is “inhibited”.
For the compound `N#Cc1ccc(NC(=O)Nc2cccc(C(F)(F)F)c2)cc1C(F)(F)F` [Compound 467], the IC50 turned out to be 0.9 µM in the data set on LNCaP cells and 1.6 µM in the data set on DU145 cells. Further, the “effect” value in data set [2] (PC3 cells) is “inactive”. Also, the “suppression” value in data set [2] (5 μM, PC3 cells) was “inactive”. For the same compound, the “agonism of GR (MMTV-luc)” value in data set [2] (5 μM) and in data set [2] (PC3 cells) was “non-agonist” in each case. Further, on AR-v7 (24 h), the “inhibition” value is “inhibited”.
With `O=C(N/C=C/c1cccc(C(F)(F)F)c1)Nc1ccncn1` [Compound 562], the 50% inhibitory concentration (IC50) at 72 h in data set [1] (72 h, Table 2.1) amounted to 4.4 µM. Also, the “interference” value in data set [2] is “do not interfere”. In addition, the “effect” value in data set [2] (PC3 cells) is “do not interfere; also recorded: selective towards the AR”. The “inhibition” value is given as “inhibit” at AR-v7 (2.5 μM) and “dose-dependently inhibit” against AR-v7 (24 h). Moreover, the “potency relative to EPI-001 at 25 μM in suppressing constitutive activation of wild-type AR-v7” value at AR-v7 is “more potent than EPI-001 at 25 μM”.
In data set [1] (72 h, Table 4.1), `O=C(Nc1ccc(Br)nc1)Nc1cc(C(F)(F)F)cc(C(F)(F)F)c1` [Compound 566] gave an IC50 at 72 h of 0.8 µM. Also, the “interference” value in data set [2] is “do not interfere”. Besides, in data set [2] (PC3 cells), the “effect” value is on record as “do not interfere”. For the same compound, the “inhibition” value against AR-v7 (2.5 μM) is “inhibit”. Further, the “potency relative to EPI-001 at 25 μM in suppressing constitutive activation of wild-type AR-v7” value on AR-v7 was “more potent than EPI-001 at 25 μM”.
With `O=C(Nc1cccc(C(F)(F)F)c1)Nc1ccc([N+](=O)[O-])c(C(F)(F)F)c1` [Compound 442], the concentration for half-maximal inhibition (IC50) in the data set on LNCaP cells was 0.5 µM; in the data set with DU145 cells, 1.5 µM. Further, the “effect” value in data set [2] (PC3 cells) was “inactive”. Further, the “suppression” value in data set [2] (5 μM, PC3 cells) was “inactive”. Also, the “agonism of GR (MMTV-luc)” value in data set [2] (5 μM) and in data set [2] (PC3 cells) was “non-agonist” in each case. Moreover, the “inhibition” value against AR-v7 (24 h) was “inhibited”.

The record behind these values is patent US20170273922A1, “UREA AND BIS-UREA BASED COMPOUNDS AND ANALOGUES THEREOF USEFUL IN THE TREATMENT OF ANDROGEN RECEPTOR MEDIATED DISEASES OR DISORDERS” (THE ROYAL INSTITUTION FOR THE ADVACEMENT OF LEARNING/MCGILL …, priority 2014, published 2017).
